Results published in patent US20210187013A1, “Methods of Treating and Preventing Cancer by Disrupting the Binding of Copper in the Map Kinase Pathway” (DUKE UNIVERSITY, priority 2012, published 2021).

How the values were obtained:
recombinant Mek1 = molecular target: T1, recombinant Mek1 (Rattus norvegicus, UniProt Q01986); test: Equilibrium dialysis copper binding stoichiometry of recombinant Mek1
T1 construct: GST (N, cleaved yes); made in house; host or cells: E. coli BL21-CodonPlus (DE3)-RIPL
Protocol: To investigate the nature of copper binding to Mek1, purified recombinant Mek1 was used for in vitro copper binding stoichiometry and binding affinity experiments. In vitro copper-binding experiments were carried out using the rat Mek1 coding sequence, which was PCR amplified using the pCMV-HAMek1 construct and cloned into the pGex6P-1 vector (GE Healthcare Life Sciences, Waukesha, United States). The resulting plasmid, pGex69-1Mek1, was transformed into BL21-CodonPlus (DE3)-RIPL cells from Stratagene. Recombinant, glutathione S-transferase (GST)-tagged Mek1 was purified by affinity chromatography using GSH agarose beads, followed by on-column Pre Scission protease cleavage of the GST tag. Further purification was achieved using MonoQ anion-exchange chromatography that served to remove the majority of the contaminating proteins, including cleaved GST tags that were not retained on the GSH column. […] Protein concentrations were determined by quantitative amino acid analysis with a Beckman 6300 analyzer (Beckman Coulter, Brea, United States) after hydrolysis in 5.7 N HCl at 110° C. in vacuo. Equilibrium dialysis experiments were conducted as described in Horng, Y. C. et al. (2006) J. Biol. Chem. 280:34113-34122. Recombinant Mek1 (2.5 to 10 μM in 20 mM Tris [pH 7.2]) was dialyzed, using a dialysis tube with 10-kDa molecular mass cutoff, against CuCl2 concentrations ranging from 0.25 to 15 μM in 20 mM Tris (pH 7.2)-100 mM NaCl overnight at 4° C. with slow stirring. Copper levels associated with Mek1 and the dialysate were quantified by inductively coupled plasma mass spectroscopy after digestion with 50% HNO3 at 65° C. In specific experiments, Cu^2+ was introduced as a Cu^2+-histidine complex (His complex) to preclude Cu^2+ hydrolysis and precipitation.
However, the inclusion of 0.1 mM EDTA reduced the Cu content to ˜1.5 molar equivalents. Dialysis of Mek1 against 2 μM Cu^2+-4 μM His complex, followed by a subsequent dialysis step in 0.1 mM EDTA, reduced the copper content to approximately 2 molar equivalents. Inclusion of […] when only Cu^2+ was present. […] In a separate series of equilibrium dialysis experiments in which the Cu^2+ content was varied from […] to 0.15 μM, the maximal copper content associated with Mek1 plateaued near ˜2.5 molar equivalent (FIG. 7B). […] Under these same conditions, Cu^2+ binding is observed with albumin, a known Cu^2+-binding protein, but not lysozyme or thyroglobulin.

recombinant GST-hErk2 = molecular target: T2, recombinant GST-hErk2 (Homo sapiens, UniProt P28482); test: Erk2 in vitro kinase assay (phosphorylation of MBP); type: biochemical; conditions: increasing amounts of CuSO4; wild-type Erk2
T2 construct: made in house; host or cells: E. coli BL21(DE3)
Protocol: Human Erk2 and human Mek1 were obtained from Addgene and cloned into pGEX4T3 and pGEX6P1 from GE Life Sciences, respectively. Recombinant GST-human Erk2 (hErk2) and GST-human Mek1 (hMek1) were purified from BL21(DE3) bacteria as previously described. (see Heise, C. J. (2006) Methods 40:209-212; Levin-Salomon, V. et al. (2008) J. Biol. Chem. 283:34500-34510). Specifically, 500 mL of LB was inoculated with BL21(DE3) bacteria transformed with pGEX4T3-hErk2 or pGEX6P1-hMek1 and allowed to grow to an optical density of 0.6 at 600 nm (OD600). GST-hErk2 was induced by IPTG (0.4 mM) at 37° C. for 4 hours, while GST-hMek1 was induced by IPTG (1 mM) for 14 hour at 25° C. before collection by ultracentrifugation. […] and GST-hMek1 pellets were resuspended in 50 mL of 1×PBS-1% Triton X-100 plus a protease inhibitor tablet and sonicated for bacterial lysis. […] The concentration was determined using the Bio-Rad DC protein assay (Bio-Rad, Hercules, United States).
(§1) Modified version of Mek1 and Erk2 in vitro kinase assay were performed as described previously. […] Reactions were quenched with 5× Laemmli buffer, and a third of the reaction mixture was analyzed by SDS-PAGE via subsequent Western blotting with phosphospecific antibodies. […] Reactions were quenched with 5× Laemmli buffer, and a third of the reaction mixture was analyzed by SDS-PAGE via Western blotting with phosphospecific antibodies.

[1] = system: Erk1/2 phosphorylation in Drosophila S2 cells; test: Insulin-stimulated Erk1/2 phosphorylation in S2 cells after preincubation with chelator or silver (immunoblot); type: cell-based; conditions: then human insulin 25 μg/mL
Text: The copper transporter Ctr1 was identified as one of approximately 300 genes that when knocked down in S2 insect cells reduced phosphorylation of Erk (see, e.g., Friedman, A. and Perrimon, N. (2006) Nature 444:230-234). To explore whether both Ctr11 and the associated Cu^+ transport function are important for Ras signaling to Erk1/2, Cu^+-specific chelation was used to impose copper deficiency on cultured fly S2 cells, S2 cells used for the no-treatment and insulin-only treatment conditions were left in basal medium (Schneider's medium with 10% fetal bovine serum) during the preincubation. S2 cells used for the other treatment conditions were preincubated for 1 hour with chelator or silver as follows: 10 μM tetrathiomolybdate (TTM) and 250 μM bathocupronine disulfonate (BCS) for copper chelation experiments, 10 μM ferrozine, and 250 μM bathophenanthroline disulfonate (BPS) for iron chelation, and 10 μM silver nitrate. Cells were stimulated with human insulin at a concentration of 25 μg/mL of medium. […] (FIG. 3A). […] (FIG. 3B). […] (FIG. 3C).

[2] = system: Erk1/2 phosphorylation in mouse embryonic fibroblasts (MEFs); test: Insulin-stimulated Erk1/2 phosphorylation in Ctr1+/+ and Ctr1−/− MEFs; type: cell-based
Protocol: Ctr1^+/+ and Ctr1^−/− mouse embryonic fibroblasts (MEFs) and insulin or fibroblast growth factor (FGF) stimulation experiments. To determine whether copper plays a role in the activation of Erk1/2, which is phosphorylated by Mek1, Ctr1^+/+ and Ctr1^−/− mouse embryonic fibroblasts (MEFs) were evaluated for insulin-stimulated ERK1/2 phosphorylation. Isolation and culture of Ctr1^+/+ and Ctr1^−/− cells were done as described in Lee, J. et al. (2002) J. Biol. Chem. 30:322-329. Insulin or fibroblast growth factor (FGF) stimulation experiments were done with plates measuring […], with one plate per time point. Cells were allowed to reach ˜95% confluence and then serum starved for 16 to 48 hours. Recombinant human insulin (Invitrogen, Carlsbad, United States) was added at a final concentration of 200 nM, and recombinant human basic FGF (Invitrogen, Carlsbad, United States) was added at a final concentration of 10 ng/ml, with the exception of the time zero plate. […]

[3] = Cu2+ affinity of ligands used in the PAR competition study; type: physicochemical; conditions: 1:1 complex
Protocol: To obtain a precise binding affinity, a series of ligand competition studies using PAR were conducted. PAR is a chromogenic chelator forming colored complexes with metal ions. Cu^2+ binding affinity for Mek1 was estimated using competition experiments similar to those described in Zimmermann, M. et. al. (2009) Biochemistry 48:11640-11654, with the divalent metal ligand PAR [4-(2-pyridylazo)resorcinol]. The quantitative release of the 1:1 Cu^2+-/PAR complex on titration of apo-Mek1 was monitored spectrophotometrically at 500 nm (DU 600 spectrophotometer, Beckman Coulter, Brea, United States) in 20 mM Tris (pH 7.2)-100 mM NaCl.
Bidentate PAR forms a 1:1 complex with Cu^2+.
Control titrations under the same pH and ionic strength buffer conditions were performed with EDTA and bovine serum albumin (BSA) to validate the Cu^2+-PAR titration study. Both EDTA and BSA are spectrally silent, with known dissociation constants. EDTA also served to calibrate Cu^2+-PAR affinity relative to the reaction condition used for the experiments.

[4] = molecular target: T3, recombinant GST-tagged human Mek1 (Homo sapiens, UniProt Q02750); test: Mek1 in vitro kinase assay (phosphorylation of kinase-dead Erk2); type: biochemical
T3 construct: made in house; host or cells: E. coli BL21(DE3)
Protocol: Mek1 requires copper for kinase activity in vitro (FIG. 8 and Turski, M. L. et al. (2012), supra). To determine the role copper plays in the stimulation of Mek1-dependent phosphorylation of Erk1/2, a series of in vitro experiments were carried out. For these experiments, purified human Mek1 protein was incubated with a kinase-dead isoform of hErk2 so that assessment of Erk2 phosphorylation mediated by Mek1 could be made in the absence of Erk2 autophosphorylation. Seger, R. et. al. (1991) Proc. Natl. Acad. Sci. U.S.A. 88:6142-6146.
Human Erk2 and human Mek1 were obtained from Addgene and cloned into pGEX4T3 and pGEX6P1 from GE Life Sciences, respectively. Recombinant GST-human Erk2 (hErk2) and GST-human Mek1 (hMek1) were purified from BL21(DE3) bacteria as previously described. […] The concentration was determined using the Bio-Rad DC protein assay (Bio-Rad, Hercules, United States).
as §1

[5] = system: BRaf^V600E-transformed MEFs; test: Tumor growth in mice injected with BRaf^V600E-transformed MEFs; type: in vivo; conditions: 2 mg/day oral TM
Text: FIGS. 12A-12C are graphs showing that copper is required for BRaf^V600E-driven tumorigenesis.
Copper is provided primarily through diet. […] Similar copper-reducing strategies may even hold promise as a way to preemptively reduce the incidence of melanoma in high-risk populations. In this regards, there are well-established approaches to regulate the level of copper in humans. Specifically, Wilson's Disease is characterized by a mutation in the copper-transporting gene ATP7B that results in elevated levels of copper in the body (see, e.g., Das, S. K. and Ray, K. (2006) Nat. Clin. Pract. Neurol. 2:482-493). This disease is treated by first lowering copper levels with copper chelators D-penicillamine, trientine or investigative drugs such as ammonium tetrathiomolybdate (TM). Copper levels are then maintained by a copper-restricted diet (e.g., avoidance of copper-rich foods such as shellfish, nuts, chocolate, liver and cooking in copperware) and either zinc acetate, to block copper absorption, or low dose copper chelators (see, e.g., Das, S. K. and Ray, K. (2006), supra). To evaluate if reducing dietary copper could negatively impact melanoma, mice injected with BRaf^V600E-transformed MEFs were either untreated as a control or treated with oral TM to chelate dietary copper.

[6] = S2 cells preincubated 1 hour with 10 μM agent
[7] = S2 cells preincubated 1 hour with 250 μM agent

T1 sequence (Q01986 whole entry): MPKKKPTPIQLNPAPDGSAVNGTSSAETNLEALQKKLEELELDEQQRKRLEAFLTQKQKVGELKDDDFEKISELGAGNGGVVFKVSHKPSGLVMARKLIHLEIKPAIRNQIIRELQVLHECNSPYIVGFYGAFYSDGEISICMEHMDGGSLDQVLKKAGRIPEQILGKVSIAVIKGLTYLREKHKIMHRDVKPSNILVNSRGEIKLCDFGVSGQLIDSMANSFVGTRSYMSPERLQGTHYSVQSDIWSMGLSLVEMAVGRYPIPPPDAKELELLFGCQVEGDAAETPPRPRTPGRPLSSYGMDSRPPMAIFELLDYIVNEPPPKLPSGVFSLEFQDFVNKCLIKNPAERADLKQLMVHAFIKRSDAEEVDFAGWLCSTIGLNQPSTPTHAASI
T3 sequence (Q02750 whole entry): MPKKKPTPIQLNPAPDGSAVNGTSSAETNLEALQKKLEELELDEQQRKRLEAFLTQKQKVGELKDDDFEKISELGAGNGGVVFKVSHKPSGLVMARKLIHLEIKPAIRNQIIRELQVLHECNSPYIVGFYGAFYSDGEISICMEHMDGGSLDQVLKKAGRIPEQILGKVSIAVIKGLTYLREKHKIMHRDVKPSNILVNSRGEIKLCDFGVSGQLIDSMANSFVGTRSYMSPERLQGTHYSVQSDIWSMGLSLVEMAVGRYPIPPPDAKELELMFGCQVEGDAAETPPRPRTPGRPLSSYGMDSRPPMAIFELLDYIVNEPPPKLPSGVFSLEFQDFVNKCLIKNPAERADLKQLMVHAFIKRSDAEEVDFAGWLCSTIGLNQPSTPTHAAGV
T2 sequence (P28482 whole entry): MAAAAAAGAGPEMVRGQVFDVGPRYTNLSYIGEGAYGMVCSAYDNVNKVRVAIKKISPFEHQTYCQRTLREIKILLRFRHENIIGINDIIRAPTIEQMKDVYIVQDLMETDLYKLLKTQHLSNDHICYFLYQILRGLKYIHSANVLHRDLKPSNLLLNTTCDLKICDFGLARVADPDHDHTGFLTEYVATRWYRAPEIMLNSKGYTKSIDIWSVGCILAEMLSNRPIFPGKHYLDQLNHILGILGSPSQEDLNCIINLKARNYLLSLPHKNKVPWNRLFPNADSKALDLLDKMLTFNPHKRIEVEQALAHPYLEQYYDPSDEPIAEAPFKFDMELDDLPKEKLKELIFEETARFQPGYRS

[Cl][Cu][Cl] [Cu^2+, CuCl2]
bound copper content of Mek1 (recombinant Mek1; dialysis against 2 μM Cu2+-4 μM His complex, then dialysis in 0.1 mM EDTA): approximately 2 molar equivalents | bound copper content of Mek1 (recombinant Mek1; dialysis against 2 μM Cu2+, as-isolated ratio ~0.5): ~2.5 molar equivalents | bound copper content of Mek1 (recombinant Mek1; dialysis with inclusion of 0.1 mM EDTA): ~1.5 molar equivalents | bound copper content of Mek1 (recombinant Mek1; only Cu2+ present (comparison with Zn(II) and Fe(II) inclusion)): 2.6 | maximal copper content associated with Mek1 (plateau) (recombinant Mek1; separate dialysis series, Cu2+ content varied from 0.11 to 0.15 μM): ~2.5 molar equivalent | Erk2 phosphorylation of MBP (recombinant GST-hErk2): no effect

O=S(=O)([O-])c1ccc(-c2nnc(-c3ccccn3)nc2-c2ccc(S(=O)(=O)[O-])cc2)cc1.[Na+].[Na+] [ferrozine]
insulin-stimulated Erk1/2 phosphorylation [1, 6]: did not reduce insulin-stimulated Erk1/2 phosphorylation

[Cu] [copper]
insulin-stimulated Erk1/2 phosphorylation ([2]; Ctr1+/+ cells, copper added): No additional stimulation was observed | insulin-stimulated Erk1/2 phosphorylation ([2]; Ctr1−/− MEFs preincubated with 25 μM copper for 1 hour prior to insulin stimulation): increased insulin-stimulated Erk1/2 phosphorylation, though not to the same levels as Ctr1^+/+ MEFs

Cc1cc(-c2ccc(S(=O)(=O)O)cc2)c2ccc3c(-c4ccc(S(=O)(=O)O)cc4)cc(C)nc3c2n1 [BCS, bathocupronine disulfonate]
insulin-stimulated Erk1/2 phosphorylation [1, 7]: reduced the levels of insulin-stimulated Erk1/2 phosphorylation

O=[N+]([O-])[O-].[Ag+] [Ag, silver nitrate]
insulin-stimulated Erk1/2 phosphorylation [1, 6]: clearly diminished the levels of insulin-stimulated Erk1/2 phosphorylation

Oc1ccc(N=Nc2ccccn2)c(O)c1 [PAR, 4-(2-pyridylazo)resorcinol]
affinity of Cu2+-PAR complex (formation constant β) [3]: 3.2×10^17

O=S(=O)([O-])[O-].[Cu+2] [CuSO4]
Mek1 kinase activity, times greater ([4]; 2.5 μM CuSO4, 22° C., 30 minutes): ~20 times

bathophenanthroline disulfonate [BPS]
insulin-stimulated Erk1/2 phosphorylation [1, 7]: did not reduce insulin-stimulated Erk1/2 phosphorylation

[NH4+].[NH4+].[SH-].[SH-].[S]=[Mo]=[S] [TM, ammonium tetrathiomolybdate]
tumor size versus control tumors at termination of the experiment [5]: nearly five times smaller than the control tumors

[SH-].[SH-].[S]=[Mo]=[S] [TTM, tetrathiomolybdate, reference compound]
Mek1 kinase activity in the presence of 2.5 μM CuSO4 ([4]; 50 μM TTM in the presence of CuSO4): blunted | insulin-stimulated Erk1/2 phosphorylation [1, 6]: reduced the levels of insulin-stimulated Erk1/2 phosphorylation
